Test results taken from US20230381142A1, “ANTILEISHMANIAL COMPOUNDS, COMPOSITIONS AND USE THEREOF” (TRUSTEES OF BOSTON UNIVERSITY, priority 2022, published 2023).

Assay: UCSD infection assay, host cell cytotoxicity (CC50)
Assay type: cell-based
Conditions: host macrophages infected with L. donovani; cytotoxicity against host macrophages

Compound: COc1ccc(N2C(=O)c3[nH]nc(CC(C)C)c3C2c2ccc(F)cc2)cc1 (racemic) [Compound 1, 4-(4-fluorophenyl)-3-isobutyl-5-(4-methoxyphenyl)-4,5-dihydropyrrolo[3,4-c]pyrazol-6(1H)-one]
- CC50 at 72 h: > 20 µM
